Article PMC8745342, “In Vitro and In Silico Kinetic Studies of Patented 1,7-diEthyl and 1,7-diMethyl Aminoalkanol Derivatives as New Inhibitors of Acetylcholinesterase” (International Journal of Molecular Sciences, 2021)

How the values were obtained:
AChE = details: model AChE inhibitors; read-out: IC50 (inhibition potency); cited from earlier work
[1] = biological target: T1, Acetylcholinesterase human (AChE) (Homo sapiens, UniProt P22303); assay: AChE inhibition kinetics, Ellman's method combined with capillary electrophoresis; format: biochemical; details: for type of AChE inhibition: from Lineweaver-Burk plots, Km and Vmax; for IC50: from activity (%) versus inhibitor concentration plots; for Tilt Angle of Lineweaver-Burk line: acetylthiocholine 0.36–46.00 mM, n = 6; for amount of 4,4-dithio-bis-acid nitrobenzoic (DBAN) product in the presence of inhibitor: 0.66 mM without inhibitors
T1 construct: purchased Sigma-Aldrich (Poznań, Poland)
T1 sequence (P22303 32-614): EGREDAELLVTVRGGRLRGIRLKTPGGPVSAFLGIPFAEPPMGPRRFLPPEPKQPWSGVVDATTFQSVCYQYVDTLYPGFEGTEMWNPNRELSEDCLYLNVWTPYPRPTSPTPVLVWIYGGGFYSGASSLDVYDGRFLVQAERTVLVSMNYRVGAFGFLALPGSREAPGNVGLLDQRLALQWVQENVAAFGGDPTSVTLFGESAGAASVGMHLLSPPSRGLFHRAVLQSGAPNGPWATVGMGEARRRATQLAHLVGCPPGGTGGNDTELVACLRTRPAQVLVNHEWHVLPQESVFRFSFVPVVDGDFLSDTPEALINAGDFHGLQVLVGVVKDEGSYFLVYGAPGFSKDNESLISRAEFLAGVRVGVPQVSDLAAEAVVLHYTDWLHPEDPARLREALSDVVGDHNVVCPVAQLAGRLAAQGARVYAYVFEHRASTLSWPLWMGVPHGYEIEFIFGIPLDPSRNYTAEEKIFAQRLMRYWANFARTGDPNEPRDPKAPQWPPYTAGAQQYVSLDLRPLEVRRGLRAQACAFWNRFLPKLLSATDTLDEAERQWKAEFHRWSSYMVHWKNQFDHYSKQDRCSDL
From the text: In this work, we used the combined Ellman’s method with the capillary electrophoresis method developed by us for the determination of 4,4-dithio-bis-acid nitrobenzoic (DBAN) (main enzyme reaction product) in the presence of acetylthiocholine (ACth), 5-thio-2-nitrobenzoic acid (NTB), 5,5′-dithio-bis-2-nitrobenzoic acid (DTNB), acetylcholinesterase (AChE) and inhibitors (I), (II), (III) and (IV) of acetylcholinesterase. For the development of this method, we optimized the buffer pH, separating background electrolyte (BGE) concentration, wavelength, temperature, and voltage. […] All these separation systems were tested to achieve the best separation parameters, resolution, and analysis time for all components in the reaction mixture. […] Separation was carried out at 15 kV. Each sample was added to the capillary under hydrodynamic injection.
The samples were injected under 5 psi pressure for 3 s. The experiments were performed under constant current conditions (85 μA). […] Before the assay, the capillary was conditioned with 0.1 M NaOH for 10 min at 10 psi and with H2O for 10 min at 10 psi. Then, it was electro conditioned with the running buffer for 20 min at +10 kV and pressure-conditioned with the running buffer for 10 min at 10 psi. Before each injection, the capillary was washed with 1 M NaOH for 2 min, then with H2O for 2 min, and finally with BGE for 2 min. At the end of each working day, the capillary was rinsed for 10 min with 0.1 M NaOH, 10 min with BGE, and 10 min with deionized water at 15 psi. Then, the capillary was exposed to air for 10 min at 20 psi and left empty.
Sample mixtures containing 4,4-dithio-bis-acid nitrobenzoic (DBAN) (main enzyme reaction product) in the presence of acetylthiocholine (ACth), 5-thio-2-nitrobenzoic acid (NTB), 5,5′-dithio-bis-2-nitrobenzoic acid (DTNB), acetylcholinesterase (AChE) and inhibitors (I), (II), (III) and (IV) were introduced automatically by pressure injection (with 2 psi pressure for 5 s on the sample solution). At the day’s end, vials with anode and cathode buffer were emptied and running buffer was filled again at the start of the next day before the analysis.
Acetylcholinesterase activity was determined according to the method by Ellman et al. and according to the procedure described by Rosilene R et al. but slightly modified. […] The tubes containing solutions were preincubated for 2 min at 25 °C. Then, 0.1 mL […] AChE was introduced into tubes 1–9, at an interval of 1 min. All 10 samples were incubated for 3 min at 25 °C. After incubation, the analytical samples were introduced into the capillary.
The inhibition constants (Ki) were calculated from the plotted Lineweaver–Burk curves for the four concentrations of the inhibitors (I), (II), (III) and (IV). The method was based on two steps (Figure 8).

[2] = inhibitor 0.08 mM, acetylthiocholine 0.36 mM
[3] = inhibitor 0.08 mM, acetylthiocholine 0.72 mM
[4] = inhibitor 0.08 mM, acetylthiocholine 1.44 mM
[5] = inhibitor 0.08 mM, acetylthiocholine 2.88 mM
[6] = inhibitor 0.08 mM, acetylthiocholine 5.75 mM
[7] = inhibitor 0.08 mM, acetylthiocholine 11.50 mM
[8] = inhibitor 0.08 mM, acetylthiocholine 23.00 mM
[9] = inhibitor 0.08 mM, acetylthiocholine 34.50 mM
[10] = inhibitor 0.08 mM, acetylthiocholine 46.00 mM

Row | SMILES | type of AChE inhibition [1] | IC50 [1] | Vmax ([1]; inhibitor 0.01 mM) | Tilt Angle of Lineweaver-Burk line ([1]; inhibitor 0.01 mM) | Vmax ([1]; inhibitor 0.02 mM) | Vmax ([1]; inhibitor 0.04 mM) | Tilt Angle of Lineweaver-Burk line ([1]; inhibitor 0.04 mM) | Vmax ([1]; inhibitor 0.06 mM) | Tilt Angle of Lineweaver-Burk line ([1]; inhibitor 0.06 mM) | Vmax ([1]; inhibitor 0.08 mM) | 1/Vo, mean [1, 2] | Peak area of product (4,4-dithio-bis-acid nitrobenzoic), mean [1, 2] | V0 (reaction speed), mean [1, 2] | 1/Vo, mean [1, 3] | Peak area of product (4,4-dithio-bis-acid nitrobenzoic), mean [1, 3] | V0 (reaction speed), mean [1, 3] | 1/Vo, mean [1, 4] | Peak area of product (4,4-dithio-bis-acid nitrobenzoic), mean [1, 4] | V0 (reaction speed), mean [1, 4] | amount of 4,4-dithio-bis-acid nitrobenzoic (DBAN) product in the presence of inhibitor [1, 4] | other results
2 | CCC12C(=O)C(CC)(C(c3ccccc3)=C1c1ccccc1)C1C(=O)N(CC(O)CN(C)C)C(=O)C12 (stereo not shown) [Compound (II)] | competitive | 39 ± 1 µM | 0.62 ± 0.03 mM/min | 59.46 ± 0.03 ° | 0.63 ± 0.02 mM/min | 0.65 ± 0.01 mM/min | 65.19 ± 0.06 ° | 0.65 ± 0.01 mM/min | 69.02 ± 0.05 ° | 0.65 ± 0.01 mM/min | 9.19 min/mM | 56086 | 0.11 mM/min | 5.40 min/mM | 102853 | 0.19 mM/min | 3.50 min/mM | 145167 | 0.29 mM/min | 0.58 mM | Tilt Angle of Lineweaver-Burk line ([1]; inhibitor 0.02 mM): 59.60 ± 0.08 °; 1/Vo, mean [1, 5]: 2.30 min/mM; Peak area of product (4,4-dithio-bis-acid nitrobenzoic), mean [1, 5]: 192894; V0 (reaction speed), mean [1, 5]: 0.43 mM/min; 1/Vo, mean [1, 6]: 2.05 min/mM; Peak area of product (4,4-dithio-bis-acid nitrobenzoic), mean [1, 6]: 233453; V0 (reaction speed), mean [1, 6]: 0.49 mM/min; 1/Vo, mean [1, 7]: 1.80 min/mM; Peak area of product (4,4-dithio-bis-acid nitrobenzoic), mean [1, 7]: 260635; V0 (reaction speed), mean [1, 7]: 0.56 mM/min; 1/Vo, mean [1, 8]: 1.70 min/mM; Peak area of product (4,4-dithio-bis-acid nitrobenzoic), mean [1, 8]: 279258; V0 (reaction speed), mean [1, 8]: 0.59 mM/min; 1/Vo, mean [1, 9]: 1.55 min/mM; Peak area of product (4,4-dithio-bis-acid nitrobenzoic), mean [1, 9]: 282281; V0 (reaction speed), mean [1, 9]: 0.65 mM/min; 1/Vo, mean [1, 10]: 1.50 min/mM; Peak area of product (4,4-dithio-bis-acid nitrobenzoic), mean [1, 10]: 283597; V0 (reaction speed), mean [1, 10]: 0.67 mM/min; Tilt Angle of Lineweaver-Burk line ([1]; inhibitor 0.08 mM): 70.02 ± 0.04 °
3 | CC(C)NCC(O)CN1C(=O)C2C(C1=O)C1(C)C(=O)C2(C)C(c2ccccc2)=C1c1ccccc1 (stereo not shown) [Compound (III)] | competitive | 33 ± 1 µM | 0.63 ± 0.01 mM/min | 60.01 ± 0.03 ° | 0.63 ± 0.02 mM/min | 0.64 ± 0.03 mM/min | 67.38 ± 0.04 ° | 0.64 ± 0.03 mM/min | 70.42 ± 0.02 ° | 0.63 ± 0.02 mM/min | 10.1 min/mM | 39497 | 0.10 mM/min | 5.70 min/mM | 72431 | 0.18 mM/min | 3.55 min/mM | 102230 | 0.28 mM/min | 0.41 mM | Tilt Angle of Lineweaver-Burk line ([1]; inhibitor 0.02 mM): 62.28 ± 0.03 °; 1/Vo, mean [1, 5]: 2.40 min/mM; Peak area of product (4,4-dithio-bis-acid nitrobenzoic), mean [1, 5]: 135840; V0 (reaction speed), mean [1, 5]: 0.42 mM/min; 1/Vo, mean [1, 6]: 2.05 min/mM; Peak area of product (4,4-dithio-bis-acid nitrobenzoic), mean [1, 6]: 164404; V0 (reaction speed), mean [1, 6]: 0.49 mM/min; 1/Vo, mean [1, 7]: 1.80 min/mM; Peak area of product (4,4-dithio-bis-acid nitrobenzoic), mean [1, 7]: 183545; V0 (reaction speed), mean [1, 7]: 0.56 mM/min; 1/Vo, mean [1, 8]: 1.70 min/mM; Peak area of product (4,4-dithio-bis-acid nitrobenzoic), mean [1, 8]: 196660; V0 (reaction speed), mean [1, 8]: 0.59 mM/min; 1/Vo, mean [1, 9]: 1.55 min/mM; Peak area of product (4,4-dithio-bis-acid nitrobenzoic), mean [1, 9]: 198790; V0 (reaction speed), mean [1, 9]: 0.65 mM/min; 1/Vo, mean [1, 10]: 1.50 min/mM; Peak area of product (4,4-dithio-bis-acid nitrobenzoic), mean [1, 10]: 199716; V0 (reaction speed), mean [1, 10]: 0.64 mM/min; Tilt Angle of Lineweaver-Burk line ([1]; inhibitor 0.08 mM): 71.50 ± 0.03 °
4 | CN(C)CC(O)CN1C(=O)C2C(C1=O)C1(C)C(=O)C2(C)C(c2ccccc2)=C1c1ccccc1 (stereo not shown) [Compound (IV)] | competitive | 35 ± 1 µM | 0.63 ± 0.02 mM/min | 59.58 ± 0.04 ° | 0.63 ± 0.02 mM/min | 0.64 ± 0.03 mM/min | 65.58 ± 0.03 ° | 0.63 ± 0.01 mM/min | 69.76 ± 0.03 ° | 0.64 ± 0.03 mM/min | 9.85 min/mM | 45817 | 0.10 mM/min | 5.40 min/mM | 84020 | 0.19 mM/min | 3.50 min/mM | 118587 | 0.29 mM/min | 0.48 mM | Tilt Angle of Lineweaver-Burk line ([1]; inhibitor 0.02 mM): 60.09 ± 0.04 °; 1/Vo, mean [1, 5]: 2.30 min/mM; Peak area of product (4,4-dithio-bis-acid nitrobenzoic), mean [1, 5]: 157575; V0 (reaction speed), mean [1, 5]: 0.43 mM/min; 1/Vo, mean [1, 6]: 2.05 min/mM; Peak area of product (4,4-dithio-bis-acid nitrobenzoic), mean [1, 6]: 190708; V0 (reaction speed), mean [1, 6]: 0.49 mM/min; 1/Vo, mean [1, 7]: 1.80 min/mM; Peak area of product (4,4-dithio-bis-acid nitrobenzoic), mean [1, 7]: 212913; V0 (reaction speed), mean [1, 7]: 0.56 mM/min; 1/Vo, mean [1, 8]: 1.70 min/mM; Peak area of product (4,4-dithio-bis-acid nitrobenzoic), mean [1, 8]: 228126; V0 (reaction speed), mean [1, 8]: 0.59 mM/min; 1/Vo, mean [1, 9]: 1.55 min/mM; Peak area of product (4,4-dithio-bis-acid nitrobenzoic), mean [1, 9]: 230596; V0 (reaction speed), mean [1, 9]: 0.65 mM/min; 1/Vo, mean [1, 10]: 1.50 min/mM; Peak area of product (4,4-dithio-bis-acid nitrobenzoic), mean [1, 10]: 231671; V0 (reaction speed), mean [1, 10]: 0.65 mM/min; Tilt Angle of Lineweaver-Burk line ([1]; inhibitor 0.08 mM): 70.40 ± 0.03 °
5 | CCC12C(=O)C(CC)(C(c3ccccc3)=C1c1ccccc1)C1C(=O)N(CC(O)CNC(C)C)C(=O)C12 (stereo not shown) [Compound (I)] | competitive | 37 ± 1 µM | 0.63 ± 0.02 mM/min | 59.52 ± 0.04 ° | 0.62 ± 0.03 mM/min | 0.64 ± 0.01 mM/min | 65.42 ± 0.05 ° | 0.65 ± 0.01 mM/min | 69.66 ± 0.05 ° | 0.65 ± 0.01 mM/min | 9.30 min/mM | 49766 | 0.11 mM/min | 5.46 min/mM | 91263 | 0.18 mM/min | 3.55 min/mM | 128810 | 0.28 mM/min | 0.52 mM | 1/Vo, mean [1, 5]: 2.30 min/mM; Peak area of product (4,4-dithio-bis-acid nitrobenzoic), mean [1, 5]: 171159; V0 (reaction speed), mean [1, 5]: 0.43 mM/min; 1/Vo, mean [1, 6]: 2.05 min/mM; Peak area of product (4,4-dithio-bis-acid nitrobenzoic), mean [1, 6]: 207149; V0 (reaction speed), mean [1, 6]: 0.49 mM/min; 1/Vo, mean [1, 7]: 1.80 min/mM; Peak area of product (4,4-dithio-bis-acid nitrobenzoic), mean [1, 7]: 231267; V0 (reaction speed), mean [1, 7]: 0.56 mM/min; 1/Vo, mean [1, 8]: 1.70 min/mM; Peak area of product (4,4-dithio-bis-acid nitrobenzoic), mean [1, 8]: 247792; V0 (reaction speed), mean [1, 8]: 0.59 mM/min; 1/Vo, mean [1, 9]: 1.55 min/mM; Peak area of product (4,4-dithio-bis-acid nitrobenzoic), mean [1, 9]: 250475; V0 (reaction speed), mean [1, 9]: 0.65 mM/min; 1/Vo, mean [1, 10]: 1.50 min/mM; Peak area of product (4,4-dithio-bis-acid nitrobenzoic), mean [1, 10]: 251643; V0 (reaction speed), mean [1, 10]: 0.67 mM/min; Tilt Angle of Lineweaver-Burk line ([1]; inhibitor 0.08 mM): 70.32 ± 0.03 °
